Test results from the NIST ThermoML archive (doi:10.1016/j.fluid.2012.08.020).

CC(C)(C)c1ccc(-c2ccc(C(C)(C)C)cc2)cc1 [4,4'-bis(1,1-dimethylethyl)-1,1'-biphenyl]
Crystal, Transpiration method
Settings	vapor or sublimation pressure [kPa]
335.5 K	7.9e-05
338.5 K	0.00011
341.5 K	0.000146
343.5 K	0.000176
348.2 K	0.000291
351.5 K	0.000425
353.9 K	0.000537
358.5 K	0.000887
363.7 K	0.001398
365.5 K	0.001697
368.6 K	0.002328
370.5 K	0.002679
373.5 K	0.003653
373.7 K	0.003396
375.7 K	0.004092
378.2 K	0.005541
380.4 K	0.006527
382.5 K	0.007664
384.7 K	0.009379

Cc1ccccc1-c1ccccc1 [2-methylbiphenyl]
Liquid, Transpiration method
Settings	vapor or sublimation pressure [kPa]
301 K	0.00376
303.5 K	0.00477
305.9 K	0.0056
308.4 K	0.00692
310.9 K	0.00851
313.4 K	0.01043
315.9 K	0.0128
318.4 K	0.01527
320.8 K	0.0183
323.3 K	0.02232
325.8 K	0.02641
328.3 K	0.0314
330.7 K	0.03763
333.2 K	0.04446
335.7 K	0.05183
338.1 K	0.06106
340.6 K	0.07203
343.1 K	0.08401
345.6 K	0.09811
348.1 K	0.1141

Cc1ccc(-c2ccc(C)cc2)cc1 [4,4'-dimethylbiphenyl]
Crystal, Transpiration method
Settings	vapor or sublimation pressure [kPa]
334.2 K	0.00389
339.3 K	0.00638
343.2 K	0.00955
349.2 K	0.01668
353.7 K	0.02516
354.6 K	0.02591
358.8 K	0.03834
363.7 K	0.05681
368.7 K	0.08722
374.5 K	0.1474
379.5 K	0.2146

CC(C)(C)c1cccc(-c2ccccc2)c1 [3-(1,1-dimethylethyl)-1,1'-biphenyl]
Liquid
Settings	vapor or sublimation pressure [kPa]
323 K, Transpiration method	0.00191
325.9 K, Transpiration method	0.00244
328.5 K, Transpiration method	0.00298
331 K, Transpiration method	0.00368
333.4 K, Transpiration method	0.00447
335.3 K, Transpiration method	0.00514
338.2 K, Transpiration method	0.00653
340.8 K, Transpiration method	0.00801
343.3 K, Transpiration method	0.00917
345.5 K, Transpiration method	0.0113
348.1 K, Transpiration method	0.01363
350.7 K, Transpiration method	0.01622
353.4 K, Transpiration method	0.01957
356 K, Transpiration method	0.02333
358.5 K, Transpiration method	0.0282
361.3 K, Transpiration method	0.03303
440.79 K, Ebulliometric method (Recirculating still)	2.117
459.53 K, Ebulliometric method (Recirculating still)	4.346
473.75 K, Ebulliometric method (Recirculating still)	7.152
486.07 K, Ebulliometric method (Recirculating still)	10.66
493.76 K, Ebulliometric method (Recirculating still)	13.5
501.46 K, Ebulliometric method (Recirculating still)	16.96
509.1 K, Ebulliometric method (Recirculating still)	21.07
518.78 K, Ebulliometric method (Recirculating still)	27.41
527.38 K, Ebulliometric method (Recirculating still)	34.27
537.26 K, Ebulliometric method (Recirculating still)	43.86
547.55 K, Ebulliometric method (Recirculating still)	56.03
558.29 K, Ebulliometric method (Recirculating still)	71.52
570.25 K, Ebulliometric method (Recirculating still)	92.61
582 K, Ebulliometric method (Recirculating still)	118.1

Settings	Normal boiling temperature [°C]
Liquid, Ebulliometric method (Recirculating still)	301.34

Cc1ccc(-c2ccccc2)cc1 [4-methylbiphenyl]
Settings	Normal boiling temperature [°C]
Liquid, Ebulliometric method (Recirculating still)	274.4
